Read-outs that look alike come from different tables or passages of the source.

This is an account of results in patent US12258609B2, “Method for producing glycerides of hydroxycarboxylic acids” (KetoLipix Therapeutics GmbH, priority 2019, dated 2025).

Series [1] deals with Panzytrat® 40,000 (pancreatin). Put plainly: Cleavage experiments with and without Panzytrat 40,000 in FaSSIF medium (simulates the intestinal tract, pH 6.5). To be noted: for share in chromatogram, FaSSIF 0 h, Start / share in chromatogram, FaSSIF m.P. 24 h, 35° C. / share in chromatogram, FaSSIF o.P. 24 h, 35° C.: the 11th table, FaSSIF (bowel, pH = 6.5); for share in chromatogram, FaSSIF m.P. 24 h, 35° C.: with Panzytrat; for share in chromatogram, FaSSIF o.P. 24 h, 35° C.: without Panzytrat; for with Panzytrat 24 h, 35° C. / without Panzytrat 24 h, 35° C. / before splitting 0 h: the 13th table, in %; for with Panzytrat 24 h, 35° C.: FaSSIF medium pH 6.5, 1 wt.-% Panzytrat 40,000, 24 h; for without Panzytrat 24 h, 35° C.: FaSSIF medium pH 6.5, without Panzytrat; for before splitting 0 h: FaSSIF medium.
Protocol: (§1) For the cleavage experiments under near-body conditions two media are investigated: • FaSSGF, which simulates the stomach • FaSSIF, which simulates the intestinal tract
Both media are from the company Biorelevant®, Ltd. in Great Britain. In addition, in some experiments porcine pancreas is added (Panzytrat® 40,000, Fa. Allergan).
Cleavage with Bowl Medium: FaSSIF Medium • The FaSSIF medium is prepared according to the manufacturer's instructions (Fa. Biorelevant, Ltd., Great Britain). • The sample obtained is divided into two equally sized preparations. 10 wt.-% of the aforementioned glyceride mixture based on a mixture of mono-, di- and triglycerides of 3-hydroxybutyric acids is dissolved in each FaSSIF medium and left in a water bath at 35° C. for 24 hours.

Series [2] has as its system porcine pancreatic lipase type II (PPL type II). As to conditions: 10 wt.-%, pH 6.5; for with enzyme, 24 h, 35° C.: pig.
Protocol: (§2) Further Cleavage with Bowl Medium: FaSSIF Medium • The FaSSIF medium is prepared according to the previous test according to the manufacturer's instructions. • The resulting sample is divided into two batches of equal size. 10 wt.-% of the ternary glyceride mixture of mono-, di- and triglycerides of 3-hydroxybutyric acids according to the invention is dissolved in each FaSSIF medium and left in a water bath at 35° C. for 24 hours.
Series [3] concerns Panzytrat® 40,000 (pancreatin). As to conditions: for before splitting / share in chromatogram, before splitting: 0 h; for share in chromatogram, before splitting / share in chromatogram, FaSSGF o.P. 24 h, 35° C. / share in chromatogram, FaSSGF m.P. 24 h, 35° C.: 10 wt.-%, pH 1.6; for share in chromatogram, FaSSGF m.P. 24 h, 35° C.: pig.
Protocol: as §1
(§3) In addition, in some experiments porcine pancreas is added (Panzytrat® 40,000, Fa. Allergan).
(§4) Cleavage with Gastric Medium: FaSSGF Medium • A so-called FaSSGF medium is prepared according to the manufacturer's specifications from the commercially available corresponding composition (available from Biorelevant, Ltd., Great Britain). • The resulting sample is divided into two batches of equal size. 10 wt.-% of the ternary glyceride mixture based on mono-, di- and triglycerides of 3-hydroxybutyric acid, as described hereinabove, is dissolved in each FaSSGF medium and left in a water bath at 35° C. for 24 hours.
The subject of series [4] is porcine pancreatic lipase type II (PPL type II). Put plainly: Cleavage experiments with and without porcine pancreatic lipase in FaSSIF medium. To be noted: the 14th table; for with enzyme, 24 h, 35° C.: FaSSIF medium pH 6.5, 1 wt.-% porcine pancreatic lipase type II; for without enzyme 24 h, 35° C.: FaSSIF medium pH 6.5, without enzyme; for before splitting 0 h: FaSSIF medium.
Protocol: as §2

The test system of series [5] is Panzytrat® 40,000 (pancreatin). Put plainly: Cleavage experiments with and without Panzytrat 40,000 in FaSSGF medium (simulates the stomach, pH 1.6). As to conditions: for share in chromatogram, FaSSGF m.P. 24 h, 35° C. / share in chromatogram, FaSSGF o.P. 24 h, 35° C. / share in chromatogram, before splitting: the 11th table; for share in chromatogram, FaSSGF m.P. 24 h, 35° C. / share in chromatogram, FaSSGF o.P. 24 h, 35° C.: FaSSGF (stomach, pH = 1.6); for share in chromatogram, FaSSGF m.P. 24 h, 35° C.: with Panzytrat; for share in chromatogram, FaSSGF o.P. 24 h, 35° C.: without Panzytrat; for share in chromatogram, before splitting: starting mixture (crude high-boiling fraction) before splitting; for before splitting: the 12th table, FaSSGF medium.
Protocol: as §1, §3, §4

Take `OCC(O)CO` [glycerol]: in series [1], the “share in chromatogram, FaSSIF 0 h, Start” value was 0.07 % area; the “share in chromatogram, FaSSIF m.P. 24 h, 35° C.” value (from here on “share … FaSSIF m.P. 24 h, 35° C.”) is 0.07 % area; the “share in chromatogram, FaSSIF o.P. 24 h, 35° C.” value (shortened to “share … FaSSIF o.P. 24 h, 35° C.”) is recorded as 0.05 % area; the “with Panzytrat 24 h, 35° C.” value is on record as 0.07. In series [1], the “without Panzytrat 24 h, 35° C.” value is 0.05 and the “before splitting 0 h” value is on record as 0.07. For the same compound, in series [2], the before splitting 0 h stood at 0.07%; the without enzyme 24 h, 35° C. is 0.05%; the with enzyme, 24 h, 35° C. was 0.08%. Also, in series [3], the before splitting came to 0.38 % area; the “share in chromatogram, before splitting” value is on record as 0.38 % area; the “share in chromatogram, FaSSGF o.P. 24 h, 35° C.” value (“share … FaSSGF o.P. 24 h, 35° C.” below) came to 0.81 % area; the “share in chromatogram, FaSSGF m.P. 24 h, 35° C.” value (from here on “share … FaSSGF m.P. 24 h, 35° C.”) came to 0.51 % area.
Consider `CCOC(=O)CC(C)O` (stereo not drawn) [3-BHB-ethyl, 3-hydroxybutyric acid ethyl ester], for which, in series [1], the “share in chromatogram, FaSSIF 0 h, Start” value is on record as 0.16 % area; the “share … FaSSIF m.P. 24 h, 35° C.” value is given as 0.20 % area; the “share … FaSSIF o.P. 24 h, 35° C.” value is given as 0.18 % area; the “with Panzytrat 24 h, 35° C.” value is 0.20. In addition, in series [1], the “without Panzytrat 24 h, 35° C.” value is reported as 0.18 and the “before splitting 0 h” value is recorded as 0.16. In series [2], the before splitting 0 h was 0.16%; the without enzyme 24 h, 35° C. was 0.18%; the with enzyme, 24 h, 35° C. is 0.12%. In series [3], the before splitting stood at 0.31 % area; the “share in chromatogram, before splitting” value amounted to 0.31 % area; the “share … FaSSGF o.P. 24 h, 35° C.” value was 0.07 % area; the “share … FaSSGF m.P. 24 h, 35° C.” value is 0.11 % area.
On to `CC(O)CC(=O)OC(C)CC(=O)OCC(O)CO` (stereo not drawn) [3-BHB-dimer-MG, monoglyceride of the dimer of 3-hydroxybutyric acid], for which, in series [1], the “share in chromatogram, FaSSIF 0 h, Start” value was 0.42 % area; the “share … FaSSIF o.P. 24 h, 35° C.” value is 0.44 % area; the “with Panzytrat 24 h, 35° C.” value is on record as 0.00; the “without Panzytrat 24 h, 35° C.” value is recorded as 0.44. Further, the “before splitting 0 h” value in series [1] was 0.42. Besides, in series [4], the “with enzyme, 24 h, 35° C.” value is 0.16; the “without enzyme 24 h, 35° C.” value worked out at 0.44; the “before splitting 0 h” value is 0.42. Also, in series [5], the “share … FaSSGF m.P. 24 h, 35° C.” value was 0.22 % area; the “share … FaSSGF o.P. 24 h, 35° C.” value is recorded as 0.16 % area; the “share in chromatogram, before splitting” value is reported as 0.39 % area; the before splitting was 0.39 % area.
For `CC(O)CC(=O)OC(C)CC(=O)OCC(CO)OC(=O)CC(C)O` (stereo not drawn) [3-BHB-dimer-DG, diglyceride of the dimer of 3-hydroxybutyric acid], in series [1], the “share in chromatogram, FaSSIF 0 h, Start” value was 7.56 % area; the “share … FaSSIF m.P. 24 h, 35° C.” value is on record as 7.02 % area; the “share … FaSSIF o.P. 24 h, 35° C.” value is 7.61 % area; the “with Panzytrat 24 h, 35° C.” value is 7.02. In addition, in series [1], the “without Panzytrat 24 h, 35° C.” value was 7.61 and the “before splitting 0 h” value is given as 7.56. In series [4], the “with enzyme, 24 h, 35° C.” value is listed as 7.07; the “without enzyme 24 h, 35° C.” value is recorded as 7.61; the “before splitting 0 h” value is 7.56. Besides, in series [5], the “share … FaSSGF m.P. 24 h, 35° C.” value was 4.22 % area; the “share … FaSSGF o.P. 24 h, 35° C.” value is listed as 3.14 % area; the “share in chromatogram, before splitting” value is listed as 6.62 % area; the before splitting is recorded as 6.62 % area.
Turning to `CC(O)CC(=O)OC(C)CC(=O)O` (stereo not drawn) [3-BHB-dimer-FS, dimer of 3-hydroxybutyric acid], in series [1], the “share … FaSSIF m.P. 24 h, 35° C.” value is listed as 0.17 % area; the “with Panzytrat 24 h, 35° C.” value is 0.17; the “without Panzytrat 24 h, 35° C.” value was 0.00; the “before splitting 0 h” value is reported as 0.00. In series [4], the “with enzyme, 24 h, 35° C.” value was 0.17; the “without enzyme 24 h, 35° C.” value was determined as 0.00; the “before splitting 0 h” value was determined as 0.00. In addition, in series [5], the “share … FaSSGF m.P. 24 h, 35° C.” value is 2.51 % area and the “share … FaSSGF o.P. 24 h, 35° C.” value is listed as 3.25 % area.
